Measured values as given in patent US10597388B2, “Pyridazinone herbicides” (FMC CORPORATION, priority 2014, dated 2020).

How the values were obtained:
Test in all cases: Test D controlled growth environment herbicide test, pre- and postemergence
Format in all cases: in vivo
[1] = system: Russian thistle (Salsola kali)
Procedure, shortened: (§1)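 Species sown in silt loam and sprayed preemergence, or grown in peat-based medium to 2–18 cm (1- to 4-leaf stage) and sprayed postemergence, with compounds in non-phytotoxic solvent plus surfactant. Visual injury scored versus controls after 14–21 d in a controlled environment, 0 (no effect) to 100 (complete control).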

[2] = system: blackgrass (Alopecurus myosuroides)
Procedure, shortened: as §1

[3] = system: bromegrass, downy (downy bromegrass, Bromus tectorum)
Procedure, shortened: as §1

[4] = system: buckwheat, wild (wild buckwheat, Polygonum convolvulus)
Procedure, shortened: as §1

[5] = system: chamomile (scentless chamomile, Matricaria inodora)
Procedure, shortened: as §1

[6] = system: field violet (Viola arvensis)
Procedure, shortened: as §1

[7] = system: galium (catchweed bedstraw, Galium aparine)
Procedure, shortened: as §1

kochia (Kochia scoparia) = system: kochia (Kochia scoparia)
Procedure, shortened: as §1

[8] = system: lambsquarters (Chenopodium album)
Procedure, shortened: as §1

[9] = system: oat, wild (wild oat, Avena fatua)
Procedure, shortened: as §1

[10] = system: oilseed rape (Brassica napus)
Procedure, shortened: as §1

[11] = system: pigweed (Amaranthus retroflexus)
Procedure, shortened: as §1

[12] = system: speedwell (bird's-eye speedwell, Veronica persica)
Procedure, shortened: as §1

[13] = Postemergence, 31 g ai/ha, scale 0 to 100 (0 no effect, 100 complete control)
[14] = Postemergence, 125 g ai/ha, visual rating on scale 0 (no effect) to 100 (complete control), 14 to 21 d
[15] = Postemergence, 250 g ai/ha, scale 0 to 100 (0 no effect, 100 complete control)
[16] = Preemergence, 125 g ai/ha, scale 0 to 100 (0 no effect, 100 complete control)
[17] = Preemergence, 250 g ai/ha, scale 0 to 100 (0 no effect, 100 complete control)
[18] = postemergence, 62 g ai/ha, scale 0 to 100, 0 no effect, 100 complete control
[19] = Preemergence, 62 g ai/ha, scale 0 to 100 (0 no effect, 100 complete control)

## Cc1nn(C)c(=O)c(-c2c(C)sc3ccc(Cl)cc23)c1O [Compound 104]
[1]; [13]
  Russian Thistle plant response rating: 55
[1]; [14]
  Plant response rating, Russian Thistle: 65
[1]; [15]
  Plant response rating, Russian Thistle: 85
[1]; Preemergence, 31 g ai/ha
  Plant response rating (scale of 0 to 100), Russian Thistle: 0
[1]; Preemergence, 62 g ai/ha
  Plant response rating (scale of 0 to 100), Russian Thistle: 10
[1]; [16]
  Plant response rating, Russian Thistle: 55
[1]; [17]
  Plant response rating, Russian Thistle: 75
[1]; [18]
  Plant response rating, Russian Thistle: 60
[2]; [13]
  Blackgrass plant response rating: 35
[2]; [14]
  Plant response rating, Blackgrass: 65
[2]; [15]
  Plant response rating, Blackgrass: 70
[2]; Preemergence, 31 g ai/ha
  Plant response rating (scale of 0 to 100), Blackgrass: 25
[2]; [19]
  Plant response rating, Blackgrass: 60
[2]; [16]
  Plant response rating, Blackgrass: 65
[2]; [17]
  Plant response rating, Blackgrass: 75
[2]; [18]
  Plant response rating, Blackgrass: 40
[3]; [13]
  Bromegrass, Downy plant response rating: 20
[3]; [14]
  Plant response rating, Bromegrass, Downy: 55
[3]; [15]
  Plant response rating, Bromegrass, Downy: 65
[3]; Preemergence, 31 g ai/ha
  Plant response rating (scale of 0 to 100), Bromegrass, Downy: 0
[3]; [19]
  Plant response rating, Bromegrass, Downy: 65
[3]; [16]
  Plant response rating, Bromegrass, Downy: 65
[3]; [17]
  Plant response rating, Bromegrass, Downy: 85
[3]; [18]
  Plant response rating, Bromegrass, Downy: 30
[4]; [13]
  Buckwheat, Wild plant response rating: 90
[4]; [14]
  Plant response rating, Buckwheat, Wild: 100
[4]; [15]
  Plant response rating, Buckwheat, Wild: 100
[4]; Preemergence, 31 g ai/ha
  Plant response rating (scale of 0 to 100), Buckwheat, Wild: 0
[4]; [19]
  Plant response rating, Buckwheat, Wild: 60
[4]; [16]
  Plant response rating, Buckwheat, Wild: 55
[4]; [17]
  Plant response rating, Buckwheat, Wild: 95
[4]; [18]
  Plant response rating, Buckwheat, Wild: 95
[5]; [13]
  Chamomile plant response rating: 80
[5]; [14]
  Plant response rating, Chamomile: 95
[5]; [15]
  Plant response rating, Chamomile: 100
[5]; [18]
  Plant response rating, Chamomile: 85
[6]; [13]
  Field Violet plant response rating: 85
[6]; [14]
  Plant response rating, Field Violet: 95
[6]; [15]
  Plant response rating, Field Violet: 98
[6]; Preemergence, 31 g ai/ha
  Plant response rating (scale of 0 to 100), Field Violet: 100
[6]; Preemergence, 62 g ai/ha
  Plant response rating (scale of 0 to 100), Field Violet: 100
[6]; [16]
  Plant response rating, Field Violet: 95
[6]; [17]
  Plant response rating, Field Violet: 100
[6]; [18]
  Plant response rating, Field Violet: 90
[7]; [13]
  Galium plant response rating: 85
[7]; [14]
  Plant response rating, Galium: 100
[7]; [15]
  Plant response rating, Galium: 100
[7]; Preemergence, 31 g ai/ha
  Plant response rating (scale of 0 to 100), Galium: 65
[7]; Preemergence, 62 g ai/ha
  Plant response rating (scale of 0 to 100), Galium: 95
[7]; [16]
  Plant response rating, Galium: 100
[7]; [17]
  Plant response rating, Galium: 100
[7]; [18]
  Plant response rating, Galium: 90
Kochia (Kochia scoparia); [13]
  Kochia plant response rating: 95
Kochia (Kochia scoparia); [14]
  Plant response rating, Kochia: 100
Kochia (Kochia scoparia); [15]
  Plant response rating, Kochia: 100
Kochia (Kochia scoparia); Preemergence, 31 g ai/ha
  Plant response rating (scale of 0 to 100), Kochia: 30
Kochia (Kochia scoparia); Preemergence, 62 g ai/ha
  Plant response rating (scale of 0 to 100), Kochia: 75
Kochia (Kochia scoparia); [16]
  Plant response rating, Kochia: 95
Kochia (Kochia scoparia); [17]
  Plant response rating, Kochia: 100
Kochia (Kochia scoparia); [18]
  Plant response rating, Kochia: 95
[8]; [13]
  Lambsquarters plant response rating: 95
[8]; [14]
  Plant response rating, Lambsquarters: 100
[8]; [15]
  Plant response rating, Lambsquarters: 100
[8]; Preemergence, 31 g ai/ha
  Plant response rating (scale of 0 to 100), Lambsquarters: 75
[8]; Preemergence, 62 g ai/ha
  Plant response rating (scale of 0 to 100), Lambsquarters: 100
[8]; [16]
  Plant response rating, Lambsquarters: 100
[8]; [17]
  Plant response rating, Lambsquarters: 100
[8]; [18]
  Plant response rating, Lambsquarters: 100
[9]; [13]
  Oat, Wild plant response rating: 85
[9]; [14]
  Plant response rating, Oat, Wild: 95
[9]; [15]
  Plant response rating, Oat, Wild: 100
[9]; Preemergence, 31 g ai/ha
  Plant response rating (scale of 0 to 100), Oat, Wild: 75
[9]; Preemergence, 62 g ai/ha
  Plant response rating (scale of 0 to 100), Oat, Wild: 80
[9]; [16]
  Plant response rating, Oat, Wild: 80
[9]; [17]
  Plant response rating, Oat, Wild: 100
[9]; [18]
  Plant response rating, Oat, Wild: 90
[10]; [13]
  Oilseed Rape plant response rating: 70
[10]; [14]
  Plant response rating, Oilseed Rape: 90
[10]; [15]
  Plant response rating, Oilseed Rape: 95
[10]; Preemergence, 31 g ai/ha
  Plant response rating (scale of 0 to 100), Oilseed Rape: 15
[10]; Preemergence, 62 g ai/ha
  Plant response rating (scale of 0 to 100), Oilseed Rape: 20
[10]; [16]
  Plant response rating, Oilseed Rape: 55
[10]; [17]
  Plant response rating, Oilseed Rape: 55
[10]; [18]
  Plant response rating, Oilseed Rape: 75
[11]; [13]
  Pigweed plant response rating: 100
[11]; [14]
  Plant response rating, Pigweed: 100
[11]; [15]
  Plant response rating, Pigweed: 100
[11]; Preemergence, 31 g ai/ha
  Plant response rating (scale of 0 to 100), Pigweed: 60
[11]; Preemergence, 62 g ai/ha
  Plant response rating (scale of 0 to 100), Pigweed: 100
[11]; [16]
  Plant response rating, Pigweed: 100
[11]; [17]
  Plant response rating, Pigweed: 100
[11]; [18]
  Plant response rating, Pigweed: 100
[12]; [13]
  Speedwell plant response rating: 30
[12]; [14]
  Plant response rating, Speedwell: 55
[12]; [15]
  Plant response rating, Speedwell: 70
[12]; [18]
  Plant response rating, Speedwell: 35
